Source: US9260393B2, “Solid state forms of N-((S)-2,3-dihydroxy-propyl)-3-(2-fluoro-4-iodo-phenylamino)-isonicotinamide” (Merck Patent GmbH, priority 2012, dated 2016)
≈ marks a conversion by molar mass, not a printed value. Entries after “also recorded” stand apart in the source; their conditions may differ.

Assays:
Type in all cases: physicochemical
[1] = Thermodynamic solubility of Forms B1 and B2 in USP Phosphate Buffer (pH 7.4); conditions: for Solid-state Residue (X-Ray-Diffraction): #1 + #2
Method: Approximately 17 mg of Compound C (free base) crystalline form B1 were dispersed in 2 mL USP Phosphate Buffer (pH 7.4) in Whatman Uniprep Syringless Filter vials in duplicate preparations.
Approximately 17 mg of Compound C (free base) crystalline form B2 were dispersed in 2 mL USP Phosphate Buffer (pH 7.4) in Whatman Uniprep Syringless Filter vials in duplicate preparations.
(§1) All dispersions were agitated at 37° C. for 24 hours. Dispersions were then filtered via the internal filter of the Uniprep vials, and clear filtrates were analysed by HPLC for dissolved quantities of Compound C.
(§2) Solid state residues were analysed by X-Ray-Diffraction for identity with the initially used materials.

[2] = Water Vapour Sorption isotherm (25° C.), DVS-1 System; conditions: for water uptake at elevated RH: above 80% RH
Method: (§3) The DSC scan of Form A1 was acquired on a Mettler-Toledo DSC 821 with a heating rate of 5 K/min, using nitrogen purge gas at 50 mL/min. […] Form A1 can be classified as non-hygroscopic according to Ph. Eur. Criteria (section 5.11.).
The DSC scan of Form A2 was acquired on a Mettler-Toledo DSC 821 with a heating rate of 5 K/min, using nitrogen purge gas at 50 mL/min. […] Eur. Criteria (section 5.11.). […]
(§4) Eur. criteria. […] Water Vapour Sorption isotherm was acquired on a DVS-1 System from SMS. • Solubility in USP phosphate buffer (pH 7.4) at 37° C. was determined to be approx. 70 μg/mL (see Example 7).

[3] = Thermal behaviour (DSC and TGA); conditions: heating rate 5 K/min
Method: as §3
The DSC scan of Form A2 was acquired on a Mettler-Toledo DSC 821 with a heating rate of 5 K/min, using nitrogen purge gas at 50 mL/min. […] Eur. Criteria (section 5.11.).
DSC scan of Form B1 was acquired on a Mettler-Toledo DSC 821 with a heating rate of 5 K/min, using nitrogen purge gas at 50 mL/min. […] Eur. criteria.
as §4

[4] = API dissolution studies in Flow-Through-Cell system; conditions: for dissolution in various buffer systems: 37° C., pH range 1.2 to 6.8; for % dissolved levels after 30 minutes: flow rate 16 mL/min
Method: Approximately 10 mg of Forms A1, A2 or B1, respectively, were accurately weighed and blended with 2 g glass beads in a Vortex mixer. The blends were then placed into a powder cell of a Flow-Through-Cell system. Dissolution studies were performed at 37° C. over 30-60 minutes at a constant flow rate of 16 mL/min. Fractions of dissolution medium after passing the Flow-Through-Cell were collected in 1 minute intervals in the first 10 minutes, in 5 minute intervals from 10-30 minutes, and in 15 minute intervals from 30-60 minutes. Dissolved levels of API in each fraction were analysed by HPLC. In dissolution experiments with HCl salt forms at pH 5.0 and pH 6.8, free base fractions which precipitated over time from the initially clear solutions in the collected dissolution fractions were re-dissolved by addition of sulphuric acid prior to HPLC analysis. All experiments were performed as triplicate preparations, with results reported as mean values from triplicates, and error bars as single standard deviations from the triplicates.

[5] = Solubility determinations of HCl salt forms vs. free base (DI water, 0.1 N HCl); conditions: for Solubility / Solid-state Residue (X-Ray-Diffraction): 37° C., 24 hours
Method: as §1, §2

[6] = Solvent-mediated competitive slurry conversion experiments with binary phase mixtures of Forms B1+B2; conditions: RT and 50° C.
Method: Approximately 10 mg of Compound C (free base) crystalline form B1 and approx. 5 mg of Compound C (free base) crystalline form B2 were dispersed in 200-1000 μL solvent in 4-mL glass vials. A PTFE-coated magnetic stirring bar was inserted into the dispersions, and the vials were tightly closed with a screw cap containing a septum. Dispersions were agitated for 5 days on a magnetic stirrer at ambient conditions (˜23° C.) and 50° C., respectively. Dispersions were then vacuum-filtrated over a Whatman paper filter, and collected filter residues were analysed by X-Ray-Diffraction for identity with the initially used materials.

[7] = USP phosphate buffer (pH 7.4), 37° C., 24 hours
[8] = relative humidity (RH) range 0-80% RH
[9] = 0.1N HCl, listed as HCl salt Form A2
[10] = 0.1N HCl, listed as HCl salt Form A1
[11] = 0.1N HCl, listed as Free Base Form B1

Compound	Solid-state Residue (X-Ray-Diffraction) [1, 7]	hygroscopicity (classification acc. to Ph. Eur. criteria, section 5.11.) [2]	water uptake at elevated RH [2]	water uptake levels [2, 8]	thermal stability [3]	dissolution kinetics as compared to forms B1 and B2 [4]	dissolution in various buffer systems [4]	aqueous solubility compared to the free base [5]	solubility as compared to forms B1 and B2 [5]	Solubility ([5]; 0.1N HCl)	Solubility ([5]; DI Water)	Solid-state Residue (X-Ray-Diffraction) ([5]; Water)	further results
O=C(NC[C@H](O)CO)c1ccncc1Nc1ccc(I)cc1F [Form B2, N—((S)-2,3-Dihydroxy-propyl)-3-(2-fluoro-4-iodo-phenylamino)-isonicotinamide]	Free Base Form B1	slightly hygroscopic	slightly enhanced	~1 wt %	sufficient								supersaturated solubility level compared to form B1 ([1]; PBS buffer pH 7.4, 37° C.): increased; Solubility ([1]; USP phosphate buffer (pH 7.4), 37° C., 24 hours, duplicate preparations #1, #2): approx. 70 μg/mL
O=C(NC[C@H](O)CO)c1ccncc1Nc1ccc(I)cc1F [Form A2, N—((S)-2,3-Dihydroxy-propyl)-3-(2-fluoro-4-iodo-phenylamino)-isonicotinamide]		slightly hygroscopic			sufficient	faster	rapid and complete dissolution	significantly improved	higher	> 20000 µg/mL	approx. 2.5 mg/mL	Free base Form B1	% dissolved levels after 30 minutes ([4]; pH 1.2, 37° C., listed as HCl Salt Form A2): 99%; % dissolved levels after 30 minutes ([4]; pH 3.0, 37° C., listed as HCl Salt Form A2): 100%; % dissolved levels after 30 minutes ([4]; pH 5.0, 37° C., listed as HCl Salt Form A2): 98%; % dissolved levels after 30 minutes ([4]; pH 6.8, 37° C., listed as HCl Salt Form A2): 96%; Solid-state Residue (X-Ray-Diffraction) [5, 9]: No residue obtained; Solubility [5, 9]: >20000 µg/mL; Solubility ([5]; DI Water, listed as HCl salt Form A2): 2500 µg/mL; Water Vapour Sorption behaviour [2]: small water uptake levels only
O=C(NC[C@H](O)CO)c1ccncc1Nc1ccc(I)cc1F [Form A1, N—((S)-2,3-Dihydroxy-propyl)-3-(2-fluoro-4-iodo-phenylamino)-isonicotinamide]		non-hygroscopic; also recorded: slightly hygroscopic			sufficient	faster	rapid and complete dissolution	significantly improved	higher	approx. 44 mg/mL	approx. 2.8 mg/mL	Free base Form B1	% dissolved levels after 30 minutes ([4]; pH 1.2, 37° C., listed as HCl Salt Form A1): 100%; % dissolved levels after 30 minutes ([4]; pH 3.0, 37° C., listed as HCl Salt Form A1): 100%; % dissolved levels after 30 minutes ([4]; pH 5.0, 37° C., listed as HCl Salt Form A1): 97%; % dissolved levels after 30 minutes ([4]; pH 6.8, 37° C., listed as HCl Salt Form A1): 96%; Solid-state Residue (X-Ray-Diffraction) [5, 10]: HCl salt Form A1; Solubility [5, 10]: 43600 µg/mL; Solubility ([5]; DI Water, listed as HCl salt Form A1): 2800 µg/mL; water uptake levels ([2]; entire relative humidity range 0-98% RH): < 0.1 wt %
O=C(NC[C@H](O)CO)c1ccncc1Nc1ccc(I)cc1F [Form B1, N—((S)-2,3-Dihydroxy-propyl)-3-(2-fluoro-4-iodo-phenylamino)-isonicotinamide]	Free Base Form B1	slightly hygroscopic	slightly enhanced	< 1 wt %	sufficient							Free base Form B1	solubility at 24 h ([1]; USP phosphate buffer, 37 °C, pH 7.4, aqueous buffer, thermodynamic from solid, USP phosphate buffer (pH 7.4), 24 hours, duplicate preparations #1, #2): ~50 µg/mL (≈ 116 µM); % dissolved levels after 30 minutes ([4]; pH 1.2, 37° C., listed as Free base Form B1): 100%; % dissolved levels after 30 minutes ([4]; pH 3.0, 37° C., listed as Free base Form B1): 83%; % dissolved levels after 30 minutes ([4]; pH 5.0, 37° C., listed as Free base Form B1): 57%; % dissolved levels after 30 minutes ([4]; pH 6.8, 37° C., listed as Free base Form B1): 52%; Solid-state Residue (X-Ray-Diffraction) [5, 11]: HCI salt Form A1; Solubility [5, 11]: 17500 µg/mL; Solubility ([5]; DI Water, listed as Free Base Form B1): <100 µg/mL; thermodynamic stability of free base forms B1 vs B2 [6]: thermodynamically more stable free base form; also recorded: thermodynamically stable; thermodynamic stability of free base forms B1 vs B2 ([6]; listed as form B1): more stable form
